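Growth conditions: 96-well plates. Treatment: test compound, 48 hours, 5 concentrations. Analysis: linear interpolation between bracketing concentrations; unreached endpoints set to highest concentration. The concentration for 50% growth inhibition is given as GI50. TGI: total growth inhibition.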
Columns and labels:
Test in all cases: NCI-60 cell line screen, 48 h
DU-145 prostate = tested on: DU-145 prostate
NCI-H23 lung = tested on: NCI-H23 lung
RPMI-8226 leukemia = tested on: RPMI-8226 leukemia
UACC-62 melanoma = tested on: UACC-62 melanoma
A549 NSCLC = tested on: A549 NSCLC
PC-3 prostate = tested on: PC-3 prostate
HCT-116 colon = tested on: HCT-116 colon
SN12C renal = tested on: SN12C renal
M14 melanoma = tested on: M14 melanoma
786-0 renal = tested on: 786-0 renal
MOLT-4 leukemia = tested on: MOLT-4 leukemia
SR leukemia = tested on: SR leukemia
SF-268 CNS = tested on: SF-268 CNS
SNB-19 CNS = tested on: SNB-19 CNS
NCI-H522 lung = tested on: NCI-H522 lung
MDA-MB-231 breast = tested on: MDA-MB-231 breast
A498 renal = tested on: A498 renal
RXF 393 renal = tested on: RXF 393 renal
UO-31 renal = tested on: UO-31 renal
LOX IMVI melanoma = tested on: LOX IMVI melanoma
IGROV1 ovarian = tested on: IGROV1 ovarian
SF-295 CNS = tested on: SF-295 CNS
COLO 205 colon = tested on: COLO 205 colon
SF-539 CNS = tested on: SF-539 CNS
HL-60(TB) leukemia = tested on: HL-60(TB) leukemia
HCT-15 colon = tested on: HCT-15 colon
SK-MEL-5 melanoma = tested on: SK-MEL-5 melanoma
HCC-2998 colon = tested on: HCC-2998 colon
T-47D breast = tested on: T-47D breast
MCF7 breast = tested on: MCF7 breast
HOP-62 NSCLC = tested on: HOP-62 NSCLC
SNB-75 CNS = tested on: SNB-75 CNS
NCI-H460 lung = tested on: NCI-H460 lung
SK-MEL-2 melanoma = tested on: SK-MEL-2 melanoma
HOP-92 NSCLC = tested on: HOP-92 NSCLC
MDA-MB-435 = tested on: MDA-MB-435
U251 CNS = tested on: U251 CNS
EKVX NSCLC = tested on: EKVX NSCLC
HT29 colon = tested on: HT29 colon
NCI-H226 lung = tested on: NCI-H226 lung
NCI/ADR-RES ovarian = tested on: NCI/ADR-RES ovarian
OVCAR-5 ovarian = tested on: OVCAR-5 ovarian
OVCAR-3 ovarian = tested on: OVCAR-3 ovarian
ACHN renal = tested on: ACHN renal
CCRF-CEM leukemia = tested on: CCRF-CEM leukemia
MALME-3M melanoma = tested on: MALME-3M melanoma
BT-549 breast = tested on: BT-549 breast
SW-620 colon = tested on: SW-620 colon
TK-10 renal = tested on: TK-10 renal
SK-MEL-28 melanoma = tested on: SK-MEL-28 melanoma
KM12 colon = tested on: KM12 colon
OVCAR-8 ovarian = tested on: OVCAR-8 ovarian
UACC-257 melanoma = tested on: UACC-257 melanoma
SK-OV-3 ovarian = tested on: SK-OV-3 ovarian
OVCAR-4 ovarian = tested on: OVCAR-4 ovarian
CAKI-1 renal = tested on: CAKI-1 renal

## CN(C)c1ccc(Nc2c3ccccc3nc3cc(NC(=O)CCN4CCCC4)ccc23)cc1
DU-145 prostate
  GI50: 155 nM
  TGI: 1190 nM
NCI-H23 lung
  GI50: 290 nM
  TGI: 1350 nM
RPMI-8226 leukemia
  GI50: 185 nM
  TGI: 711 nM
UACC-62 melanoma
  GI50: 774 nM
  TGI: 2110 nM
A549 NSCLC
  GI50: 68.8 nM
  TGI: 1750 nM
PC-3 prostate
  GI50: 577 nM
  TGI: 2170 nM
HCT-116 colon
  GI50: 346 nM
  TGI: 1610 nM
SN12C renal
  GI50: 197 nM
  TGI: 1250 nM
M14 melanoma
  GI50: 692 nM
  TGI: 2000 nM
786-0 renal
  GI50: 343 nM
  TGI: 1380 nM
MOLT-4 leukemia
  GI50: 42 nM
  TGI: 1070 nM
SR leukemia
  GI50: 42.1 nM
  TGI: 1240 nM
SF-268 CNS
  GI50: 473 nM
  TGI: 1880 nM
SNB-19 CNS
  GI50: 305 nM
  TGI: 1640 nM
NCI-H522 lung
  GI50: 541 nM
  TGI: 2210 nM
MDA-MB-231 breast
  GI50: 1230 nM
  TGI: 2920 nM
A498 renal
  GI50: 442 nM
  TGI: 1980 nM
RXF 393 renal
  GI50: 466 nM
  TGI: 1690 nM
UO-31 renal
  GI50: 595 nM
  TGI: 1920 nM
LOX IMVI melanoma
  GI50: 210 nM
  TGI: 1460 nM
IGROV1 ovarian
  GI50: 291 nM
  TGI: 1830 nM
SF-295 CNS
  GI50: 362 nM
  TGI: 1510 nM
COLO 205 colon
  GI50: 309 nM
  TGI: 1760 nM
SF-539 CNS
  GI50: 650 nM
  TGI: 1920 nM
HL-60(TB) leukemia
  GI50: 190 nM
  TGI: 763 nM
HCT-15 colon
  GI50: 816 nM
  TGI: 2200 nM
SK-MEL-5 melanoma
  GI50: 1040 nM
  TGI: 2320 nM
HCC-2998 colon
  GI50: 627 nM
  TGI: 2260 nM
T-47D breast
  GI50: 455 nM
  TGI: 2430 nM
MCF7 breast
  GI50: 71.1 nM
  TGI: 1610 nM
HOP-62 NSCLC
  GI50: 235 nM
  TGI: 1560 nM
SNB-75 CNS
  GI50: 381 nM
  TGI: 1720 nM
NCI-H460 lung
  GI50: 42.3 nM
  TGI: 683 nM
SK-MEL-2 melanoma
  GI50: 1750 nM
  TGI: 3330 nM
HOP-92 NSCLC
  GI50: 379 nM
  TGI: 2140 nM
MDA-MB-435
  GI50: 1220 nM
  TGI: 2490 nM
U251 CNS
  GI50: 227 nM
  TGI: 1580 nM
EKVX NSCLC
  GI50: 964 nM
  TGI: 2620 nM
HT29 colon
  GI50: 475 nM
  TGI: 2060 nM
NCI-H226 lung
  GI50: 577 nM
  TGI: 2590 nM
NCI/ADR-RES ovarian
  GI50: 2910 nM
  TGI: 12900 nM
OVCAR-5 ovarian
  GI50: 890 nM
  TGI: 2740 nM
OVCAR-3 ovarian
  GI50: 810 nM
  TGI: 2250 nM
ACHN renal
  GI50: 321 nM
  TGI: 1120 nM
CCRF-CEM leukemia
  GI50: 77.8 nM
  TGI: 1380 nM
MALME-3M melanoma
  GI50: 1120 nM
  TGI: 2410 nM
BT-549 breast
  GI50: 1300 nM
  TGI: 2730 nM
SW-620 colon
  GI50: 252 nM
  TGI: 1680 nM
TK-10 renal
  GI50: 1130 nM
  TGI: 3000 nM
SK-MEL-28 melanoma
  GI50: 1460 nM
  TGI: 2850 nM
KM12 colon
  GI50: 497 nM
  TGI: 1880 nM
OVCAR-8 ovarian
  GI50: 533 nM
  TGI: 2960 nM
UACC-257 melanoma
  GI50: 1650 nM
  TGI: 3510 nM
SK-OV-3 ovarian
  GI50: 413 nM
  TGI: 1780 nM
OVCAR-4 ovarian
  GI50: 570 nM
  TGI: 2160 nM
CAKI-1 renal
  GI50: 594 nM
  TGI: 2190 nM

Reference: PubChem BioAssay (NCI)
